The structures appear in SMILES notation. pKi: −log10 of the molar value.

The target of the first assay is T1, Cdc7 (BEV coexpressed huCDC7/DBF4) (Homo sapiens, UniProt O00311).
T1 construct: made in house; host or cells: BEV (baculovirus expression vector) co-expression; insect cells are implied but no cell line is named
T1 sequence (O00311 whole entry): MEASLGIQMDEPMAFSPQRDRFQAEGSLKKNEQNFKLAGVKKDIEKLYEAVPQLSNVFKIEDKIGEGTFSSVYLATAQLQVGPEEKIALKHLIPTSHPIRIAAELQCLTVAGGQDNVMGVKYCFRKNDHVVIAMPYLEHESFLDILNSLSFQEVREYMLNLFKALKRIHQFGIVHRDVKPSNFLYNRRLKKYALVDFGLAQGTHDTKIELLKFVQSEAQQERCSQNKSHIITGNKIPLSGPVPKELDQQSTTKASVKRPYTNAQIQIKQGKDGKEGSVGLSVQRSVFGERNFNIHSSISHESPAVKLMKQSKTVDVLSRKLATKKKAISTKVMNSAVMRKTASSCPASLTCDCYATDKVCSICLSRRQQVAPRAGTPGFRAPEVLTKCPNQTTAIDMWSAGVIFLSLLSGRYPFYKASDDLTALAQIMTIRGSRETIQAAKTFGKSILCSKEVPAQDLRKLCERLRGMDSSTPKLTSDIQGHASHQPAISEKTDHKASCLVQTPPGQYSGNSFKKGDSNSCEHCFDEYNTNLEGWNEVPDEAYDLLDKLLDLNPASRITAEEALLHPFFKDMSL
T1 sequence (Q9UBU7 whole entry partner): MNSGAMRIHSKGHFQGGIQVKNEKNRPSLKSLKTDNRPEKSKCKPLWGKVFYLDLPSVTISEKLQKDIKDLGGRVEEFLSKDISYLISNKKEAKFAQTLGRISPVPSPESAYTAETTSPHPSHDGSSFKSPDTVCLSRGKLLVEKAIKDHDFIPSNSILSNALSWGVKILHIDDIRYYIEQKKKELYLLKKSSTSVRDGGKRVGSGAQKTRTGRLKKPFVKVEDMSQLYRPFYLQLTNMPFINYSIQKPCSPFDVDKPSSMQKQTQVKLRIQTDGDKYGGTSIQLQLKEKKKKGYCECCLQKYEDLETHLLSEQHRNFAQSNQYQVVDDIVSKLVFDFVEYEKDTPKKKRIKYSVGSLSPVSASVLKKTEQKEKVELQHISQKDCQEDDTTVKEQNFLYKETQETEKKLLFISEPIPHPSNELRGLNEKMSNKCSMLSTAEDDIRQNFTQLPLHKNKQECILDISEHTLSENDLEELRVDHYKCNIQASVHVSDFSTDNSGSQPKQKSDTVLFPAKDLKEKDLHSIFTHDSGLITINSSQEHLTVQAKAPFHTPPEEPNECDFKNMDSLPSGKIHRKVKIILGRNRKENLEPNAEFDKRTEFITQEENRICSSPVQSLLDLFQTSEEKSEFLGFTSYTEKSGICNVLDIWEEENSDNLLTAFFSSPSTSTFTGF
Nature of the assay: Cdc7 enzyme inhibition assay ([33P]ATP, biotinylated peptide substrate, FlashPlate). The assay is classed as biochemical.
Details: not given
On the procedure:
Cdc7 (BEV coexpressed huCDC7/DBF4) is prepared internally. Cdc7 assays are conducted as follows with final concentrations as listed. […] Reactions are quenched after 1 hr by the addition of 90 μL stop buffer (50 mM EDTA, 2M NaCl). […] (Ki) for exemplary compounds.
The term pKi denotes the Ki on a negative log10 scale, so that one unit is a factor of ten. A low value points to a large Ki. For `Clc1cc(-c2c[nH]c3ncccc23)cc(NC2CCCCC2)n1` [Example 1, 6-Chloro-N-cyclohexyl-4-(1H-pyrrolo[2,3-b]pyridin-3-yl)pyridin-2-amine], the pKi is above 8.00.
`Clc1cc(-c2c[nH]c3ncccc23)cc(NCc2ccccc2)n1` [Example 2, N-Benzyl-6-chloro-4-(1H-pyrrolo[2,3-b]pyridin-3-yl)pyridin-2-amine] showed a negative-log Ki (pKi) above 8.00.
The same measure, in the same setting: under `C=CCNc1cc(-c2c[nH]c3ncccc23)cc(Cl)n1` [Example 3, N-Allyl-6-chloro-4-(1H-pyrrolo[2,3-b]pyridin-3-yl)pyridin-2-amine] stands above 8.00; under `Clc1cc(-c2c[nH]c3ncccc23)cc(N2CCCCC2)n1` [Example 4, 3-(2-chloro-6-piperidin-1-ylpyridin-4-yl)-1H-pyrrolo[2,3-b]pyridine], 7.00 to 8.00; under `CN(Cc1ccccc1)c1cc(-c2c[nH]c3ncccc23)cc(Cl)n1` [Example 5, N-benzyl-6-chloro-N-methyl-4-(1H-pyrrolo[2,3-b]pyridin-3-yl)pyridin-2-amine], above 8.00.
Still for that read-out and setting: with `FC1(F)CN(c2cc(-c3c[nH]c4ncccc34)cc(Cl)n2)C1` [Example 6, 3-[2-chloro-6-(3,3-difluoroazetidin-1-yl)pyridin-4-yl]-1-1H-pyrrolo[2,3-b]pyridine] the figure was 7.00 to 8.00; with `Cc1cccc(-c2cc(-c3c[nH]c4ncccc34)cc(Cl)n2)c1C` [Example 7, 3-[2-chloro-6-(2,3-dimethylphenyl)pyridin-4-yl]-1H-pyrrolo[2,3-b]pyridine], 7.00 to 8.00.
With `Clc1cc(-c2c[nH]c3ncccc23)cc(NC2CCOCC2)n1` [Example 8, 6-chloro-4-(1H-pyrrolo[2,3-b]pyridin-3-yl)-N-tetrahydro-2H-pyran-4-ylpyridin-2-amine], the negative logarithm of the Ki (pKi) is above 8.00.
`OC1CCCCC1Nc1cc(-c2c[nH]c3ncccc23)cc(Cl)n1` (centres unmarked) [Example 9, 2-{[6-chloro-4-(1H-pyrrolo[2,3-b]pyridin-3-yl)pyridin-2-yl]amino}cyclohexanol] had a negative-log Ki (pKi) above 8.00.
`COCCNc1cc(-c2c[nH]c3ncccc23)cc(Cl)n1` [Example 10, 6-chloro-N-(2-methoxyethyl)-4-(1H-pyrrolo[2,3-b]pyridin-3-yl)pyridin-2-amine] had a pKi above 8.00.
The same measure, in the same setting: under `OCCNc1cc(-c2c[nH]c3ncccc23)cc(Cl)n1` [Example 11, 2-{[6-chloro-4-(1H-pyrrolo[2,3-b]pyridin-3-yl)pyridin-2-yl]amino}ethanol] stands above 8.00; under `COCCN(CCOC)c1cc(-c2c[nH]c3ncccc23)cc(Cl)n1` [Example 12, 6-chloro-N,N-bis(2-methoxyethyl)-4-(1H-pyrrolo[2,3-b]pyridin-3-yl)pyridin-2-amine], 7.00 to 8.00; under `Clc1cc(-c2c[nH]c3ncccc23)cc(NCC2CCCO2)n1` (centres unmarked) [Example 13, 6-chloro-4-(1H-pyrrolo[2,3-b]pyridin-3-yl)-N-(tetrahydrofuran-2-ylmethyl)pyridin-2-amine], above 8.00.
In the case of `O[C@H]1CC[C@H](Nc2cc(-c3c[nH]c4ncccc34)cc(Cl)n2)CC1` [Example 14, Trans 4-{[6-chloro-4-(1H-pyrrolo[2,3-b]pyridin-3-yl)pyridin-2-yl]amino}cyclohexanol], the negative-log Ki (pKi) is above 8.00.
`NC1CCC(Nc2cc(-c3c[nH]c4ncccc34)cc(Cl)n2)CC1` (centres unmarked) [Example 15, N-[6-chloro-4-(1H-pyrrolo[2,3-b]pyridin-3-yl)pyridin-2-yl]cyclohexane-1,4-diamine] showed a negative logarithm of the Ki (pKi) above 8.00.
Regarding `COC1CCCCC1Nc1cc(-c2c[nH]c3ncccc23)cc(Cl)n1` (centres unmarked) [Example 16, 6-chloro-N-(2-methoxycyclohexyl)-4-(1H-pyrrolo[2,3-b]pyridin-3-yl)pyridin-2-amine], the pKi is 7.00 to 8.00.
The same measure, in the same setting: with `NC1CCCCC1Nc1cc(-c2c[nH]c3ncccc23)cc(Cl)n1` (centres unmarked) [Example 17, N-[6-chloro-4-(1H-pyrrolo[2,3-b]pyridin-3-yl)pyridin-2-yl]cyclohexane-1,2-diamine] the figure was above 8.00; with `CC(C)(O)CNc1cc(-c2c[nH]c3ncccc23)cc(Cl)n1` [Example 18, 1-{[6-chloro-4-(1H-pyrrolo[2,3-b]pyridin-3-yl)pyridin-2-yl]amino}-2-methylpropan-2-ol], above 8.00.
Regarding `OCCCCNc1cc(-c2c[nH]c3ncccc23)cc(Cl)n1` [Example 19, 4-{[6-chloro-4-(1H-pyrrolo[2,3-b]pyridin-3-yl)pyridin-2-yl]amino}butan-1-ol], the pKi was above 8.00.
Still for that read-out and setting: with `CC(C)(CO)CCCNc1cc(-c2c[nH]c3ncccc23)cc(Cl)n1` [Example 20] the figure was above 8.00.
On the same count and under the same terms, under `CS(=O)(=O)NC1CCC(Nc2cc(-c3c[nH]c4ncccc34)cc(Cl)n2)CC1` (centres unmarked) [Example 21, N-(4-{[6-chloro-4-(1H-pyrrolo[2,3-b]pyridin-3-yl)pyridin-2-yl]amino}cyclohexyl)methanesulfonamide] stands above 8.00; under `CC(=O)NC1CCC(Nc2cc(-c3c[nH]c4ncccc34)cc(Cl)n2)CC1` (centres unmarked) [Example 22, N-(4-{[6-chloro-4-(1H-pyrrolo[2,3-b]pyridin-3-yl)pyridin-2-yl]-amino}cyclohexyl)acetamide], above 8.00; under `NC1CCCC(Nc2cc(-c3c[nH]c4ncccc34)cc(Cl)n2)C1` (centres unmarked) [Example 23, N-[6-chloro-4-(1H-pyrrolo[2,3-b]pyridin-3-yl)pyridin-2-yl]cyclohexane-1,3-diamine], above 8.00.

The same assay, now with this note: Table 2; Comparative Example lacking the chloro substituent versus the chloro Example.
For the compound `N#Cc1cc(-c2c[nH]c3ncccc23)cc(N2CCCCC2)n1` [Comparative Example 8, 6-piperidin-1-yl-4-(1H-pyrrolo[2,3-b]pyridin-3-yl)pyridine-2-carbonitrile, reference compound], the “Ki ratio comparisons (Ki Comparative Example/Ki Example)” value (“Ki ratio comparisons” for short) stood at 2.
Take `NC(=O)c1cc(-c2c[nH]c3ncccc23)cc(N2CCCCC2)n1` [Comparative Example 9, 6-piperidin-1-yl-4-(1H-pyrrolo[2,3-b]pyridin-3-yl)pyridine-2-carboxamide, reference compound]: the “Ki ratio comparisons” value is listed as 84.
Regarding `N#Cc1cc(-c2c[nH]c3ncccc23)cc(N[C@H]2CC[C@H](O)CC2)n1` [Comparative Example 10, 6-[(trans-4-hydroxycyclohexyl)amino]-4-(1H-pyrrolo[2,3-b]pyridin-3-yl)pyridine-2-carbonitrile, reference compound], the “Ki ratio comparisons” value was found to be 10.
Still for that read-out and setting: under `NC(=O)c1cc(-c2c[nH]c3ncccc23)cc(N[C@H]2CC[C@H](O)CC2)n1` [Comparative Example 11, 6-[(trans-4-hydroxycyclohexyl)amino]-4-(1H-pyrrolo[2,3-b]pyridin-3-yl)pyridine-2-carboxamide, reference compound] stands 134; under `c1cnc2[nH]cc(-c3ccnc(NC4CCCCC4)n3)c2c1` [Comparative Example 12, N-cyclohexyl-4-(1H-pyrrolo[2,3-b]pyridin-3-yl)pyrimidin-2-amine, reference compound], 3; under `N[C@H]1CC[C@H](Nc2nccc(-c3c[nH]c4ncccc34)n2)CC1` [Comparative Example 13, Trans-N-[4-(1H-pyrrolo[2,3-b]pyridin-3-yl)pyrimidin-2-yl]cyclohexane-1,4-diamine, reference compound], 12.

Source of the values: patent publication US8435980B2 (AbbVie Inc., priority 2009, dated 2013).
